Laboratory results published in ChEMBL document CHEMBL1149488, “Antitumour properties of fluorinated benzothiazole-substituted hydroxycyclohexa-2,5-dienones ('quinols')” (2006).

Legend:
Type in all cases: functional
[1] = molecular target: T1, Thioredoxin reductase (Homo sapiens) (UniProt Q16881+Q9NNW7+Q86VQ6); experiment: Inhibition of human thioredoxin signalling assessed as inhibition of insulin reduction at 25 uM
HT-29 = experiment: Antitumor activity against human HT29 cells by MTT assay
[2] = molecular target: T1, Thioredoxin reductase (Homo sapiens); experiment: Inhibition of human thioredoxin signalling assessed as inhibition of insulin reduction at 100 uM
HCT-116 = experiment: Antitumor activity against human HCT116 cells by MTT assay
MCF7 = experiment: Antitumor activity against human MCF7 cells by MTT assay
[3] = molecular target: T1, Thioredoxin reductase (Homo sapiens); experiment: Inhibition of human thioredoxin signalling assessed as inhibition of insulin reduction at 50 uM
[4] = tested on: Panel NCI-60 (60 carcinoma cell lines); experiment: Antitumor activity against human NCI60 cells
MDA-MB-468 = experiment: Antitumor activity against human MDA-MB-468 cells by MTT assay
[5] = molecular target: T1, Thioredoxin reductase (Homo sapiens); experiment: Inhibition of human thioredoxin signalling assessed as inhibition of insulin reduction at 10 uM

`O=C1C=CC(O)(c2nc3ccccc3s2)C=C1` was tested, and the inhibition [1] was 35.1%, the GI50 (HT-29) was 590 nM and the inhibition [2] was 95.8%. It also gave a GI50 (HCT-116) of 110 nM, a GI50 (MCF7) of 440 nM and an inhibition [3] of 94.8%. It also gave a GI50 [4] of 230 nM, a GI50 (MDA-MB-468) of 410 nM and an inhibition [5] of 13.2%.
